Laboratory results published in PubChem BioAssay (NCI).
Where “and” joins values, the source holds several entries; their conditions need not be identical. Equal values may be shown once.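 Briefly, cells in 96-well plates were exposed to five compound concentrations for 48 h, and endpoints were estimated by linear interpolation. GI50 = concentration required for 50% inhibition of growth. At the TGI there is no net growth.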

Legend:
Assay in all cases: NCI tumour cell line growth inhibition, 48 h
A498 renal = tested on: A498 renal
ACHN renal = tested on: ACHN renal
CCRF-CEM leukemia = tested on: CCRF-CEM leukemia
HOP-62 NSCLC = tested on: HOP-62 NSCLC
HT29 colon = tested on: HT29 colon
OVCAR-5 ovarian = tested on: OVCAR-5 ovarian
SN12C renal = tested on: SN12C renal
SNB-19 CNS = tested on: SNB-19 CNS
T-47D breast = tested on: T-47D breast
UACC-257 melanoma = tested on: UACC-257 melanoma

Work on COC1(OC)C=CC(=O)C=C1 yielded a TGI (A498 renal) of over 91.2 µM, a TGI (ACHN renal) of 8.56 µM and a TGI (CCRF-CEM leukemia) of 22.4 µM. It also gave a TGI (HOP-62 NSCLC) of 24.5 µM, a TGI (HT29 colon) of 12.1 µM and a TGI (OVCAR-5 ovarian) of over 41.6 µM. It also gave a TGI (SN12C renal) of 30.8 µM, a TGI (SNB-19 CNS) of 30.2 µM and a TGI (T-47D breast) of 10.7 µM. For the same compound, the TGI (UACC-257 melanoma) was 8.48 µM.

For Nc1ccc2c(c1)NC(=O)[C@@H]1CCCN1C2=O, the TGI (A498 renal) was over 100 µM, the TGI (ACHN renal) was over 100 µM and the TGI (CCRF-CEM leukemia) was over 100 µM. It also gave a TGI (HOP-62 NSCLC) of over 100 µM, a TGI (HT29 colon) of over 100 µM and a TGI (OVCAR-5 ovarian) of over 100 µM. It also gave a TGI (SN12C renal) of over 100 µM, a TGI (SNB-19 CNS) of over 100 µM and a TGI (T-47D breast) of over 100 µM. It also gave a TGI (UACC-257 melanoma) of over 100 µM.

With COC(=O)c1cc(C)ccc1/C=C1\Cc2c(C)cc(C)cc2C1=O the TGI (A498 renal) was 76.4 µM, the TGI (ACHN renal) was over 100 µM and the TGI (CCRF-CEM leukemia) was over 100 µM. It also gave a TGI (HOP-62 NSCLC) of 32.4 µM, a TGI (HT29 colon) of over 100 µM and a TGI (OVCAR-5 ovarian) of over 100 µM. It also gave a TGI (SN12C renal) of over 100 µM, a TGI (SNB-19 CNS) of 52.8 µM and a TGI (T-47D breast) of over 100 µM. For the same compound, the TGI (UACC-257 melanoma) was over 30.1 µM.

With O=C(O)COc1cc(-c2ccccc2)nc2ccccc12 the TGI (A498 renal) was over 100 µM, the TGI (ACHN renal) was over 100 µM and the TGI (CCRF-CEM leukemia) was over 100 µM. The TGI (HOP-62 NSCLC) was over 100 µM, the TGI (HT29 colon) was over 100 µM and the TGI (OVCAR-5 ovarian) was over 100 µM. For the same compound, the TGI (SN12C renal) was over 100 µM, the TGI (SNB-19 CNS) was over 100 µM and the TGI (T-47D breast) was over 100 µM. It also gave a TGI (UACC-257 melanoma) of over 100 µM.

For CC(=O)O[C@H]1CCC2[C@@H]3CCC4NC(=O)C(C#N)C[C@]4(C)C3CC[C@@]21C (stereo not given in full), the TGI (A498 renal) was over 10 µM, the TGI (ACHN renal) was over 10 µM and the TGI (CCRF-CEM leukemia) was over 10 µM. The TGI (HOP-62 NSCLC) was over 10 µM, the TGI (HT29 colon) was over 10 µM and the TGI (OVCAR-5 ovarian) was over 10 µM. It also gave a TGI (SN12C renal) of over 10 µM, a TGI (SNB-19 CNS) of over 10 µM and a TGI (T-47D breast) of over 10 µM. It also gave a TGI (UACC-257 melanoma) of over 10 µM.

Work on C=CCOC1(CC=C)C(=O)OC2C(O)COC21O (stereo not given) yielded a TGI (A498 renal) of over 100 µM, a TGI (ACHN renal) of over 100 µM and a TGI (CCRF-CEM leukemia) of over 100 µM. The TGI (HOP-62 NSCLC) was over 100 µM, the TGI (HT29 colon) was over 100 µM and the TGI (OVCAR-5 ovarian) was over 100 µM. For the same compound, the TGI (SN12C renal) was over 100 µM, the TGI (SNB-19 CNS) was over 100 µM and the TGI (T-47D breast) was over 100 µM. For the same compound, the TGI (UACC-257 melanoma) was over 100 µM.

CC(C#N)N(CCc1ccccc1)C(=O)c1ccccc1 (stereo not given) was tested, and the TGI (A498 renal) was over 100 µM, the TGI (ACHN renal) was over 100 µM and the TGI (CCRF-CEM leukemia) was over 100 µM. The TGI (HOP-62 NSCLC) was over 100 µM, the TGI (HT29 colon) was over 100 µM and the TGI (OVCAR-5 ovarian) was over 100 µM. It also gave a TGI (SN12C renal) of over 100 µM, a TGI (SNB-19 CNS) of over 100 µM and a TGI (T-47D breast) of over 100 µM. The TGI (UACC-257 melanoma) was over 100 µM.

In the case of COc1ccc(NC(=O)CC(=O)N2N=C(N(c3ccccc3)c3ccccc3)CC2c2ccccc2)cc1 (stereo not given), the TGI (A498 renal) is reported as over 100 µM, the TGI (ACHN renal) is reported as over 100 µM and the TGI (CCRF-CEM leukemia) is reported as over 100 µM. The TGI (HOP-62 NSCLC) was over 100 µM, the TGI (HT29 colon) was over 100 µM and the TGI (OVCAR-5 ovarian) was over 100 µM. For the same compound, the TGI (SN12C renal) was over 100 µM, the TGI (SNB-19 CNS) was over 100 µM and the TGI (T-47D breast) was over 100 µM. It also gave a TGI (UACC-257 melanoma) of over 100 µM.

COC(=O)/C=c1/c2ccccc2n2c1c1ccccc1[n+]2C showed a TGI (A498 renal) of 14.6 µM, a TGI (ACHN renal) of 14.7 µM and a TGI (CCRF-CEM leukemia) of 51.1 µM. It also gave a TGI (HOP-62 NSCLC) of 15.3 µM, a TGI (HT29 colon) of 12.8 µM and a TGI (OVCAR-5 ovarian) of 17.6 µM. For the same compound, the TGI (SN12C renal) was 16.4 µM, the TGI (SNB-19 CNS) was over 100 µM and the TGI (T-47D breast) was over 100 µM. It also gave a TGI (UACC-257 melanoma) of 8.08 µM.

For CC1(C)[C@@H](OC(N)=O)C=C[C@]2(CO)[C@H]3CC[C@]4(C)[C@@H](c5ccc(=O)oc5)[C@@H](Cl)C[C@]4(O)C3=CC[C@@H]12, the GI50 (A498 renal) was 0.0122 µM, the TGI (A498 renal) was 0.0557 µM and the GI50 (ACHN renal) was under 0.0001 µM. It also gave a TGI (ACHN renal) of 0.00262 µM, a GI50 (CCRF-CEM leukemia) of under 0.0001 µM and a TGI (CCRF-CEM leukemia) of 0.0131 µM. The GI50 (HOP-62 NSCLC) was under 0.0001 µM, the TGI (HOP-62 NSCLC) was 0.00316 µM and the GI50 (HT29 colon) was 0.0024 µM. It also gave a TGI (HT29 colon) of 0.0154 µM, a GI50 (OVCAR-5 ovarian) of 0.00426 µM and a TGI (OVCAR-5 ovarian) of 0.0163 µM. The GI50 (SN12C renal) was under 0.0001 µM, the TGI (SN12C renal) was 0.0157 µM and the GI50 (SNB-19 CNS) was 0.00887 µM and 0.0025 µM. For the same compound, the TGI (SNB-19 CNS) was 0.0228 µM and 0.0461 µM, the GI50 (T-47D breast) was 0.00359 µM and the TGI (T-47D breast) was 0.0326 µM. The GI50 (UACC-257 melanoma) was 0.012 µM and the TGI (UACC-257 melanoma) was 0.029 µM.

CC(=O)NC(=O)NC1=NCCC(=O)N1CCc1c[nH]c2ccccc12 showed a TGI (A498 renal) of over 100 µM, a TGI (ACHN renal) of over 100 µM and a TGI (CCRF-CEM leukemia) of over 100 µM. For the same compound, the TGI (HOP-62 NSCLC) was over 100 µM, the TGI (HT29 colon) was over 100 µM and the TGI (OVCAR-5 ovarian) was over 100 µM. The TGI (SN12C renal) was over 100 µM, the TGI (SNB-19 CNS) was over 100 µM and the TGI (T-47D breast) was over 100 µM. The TGI (UACC-257 melanoma) was over 100 µM.

For CC1CN=C(c2ccc(CN3CCC(C4CCN(Cc5ccc(C6=NCC(C)N6)cc5)CC4)CC3)cc2)N1 (stereo not given), the TGI (A498 renal) was 80.6 µM, the TGI (ACHN renal) was 75.9 µM and the TGI (CCRF-CEM leukemia) was 38.2 µM. It also gave a TGI (HOP-62 NSCLC) of 30.9 µM, a TGI (HT29 colon) of 42.7 µM and a TGI (OVCAR-5 ovarian) of 65.1 µM. For the same compound, the TGI (SN12C renal) was 37 µM, the TGI (SNB-19 CNS) was 75.8 µM and the TGI (T-47D breast) was 49.4 µM. For the same compound, the TGI (UACC-257 melanoma) was 52.4 µM.

With C=CCc1ccccc1C1CC2(C(=O)OC)OC1C(C(=O)OC)=C2C(=O)OC (stereo not given) the TGI (A498 renal) was over 10 µM, the TGI (ACHN renal) was over 10 µM and the TGI (CCRF-CEM leukemia) was over 10 µM. For the same compound, the TGI (HOP-62 NSCLC) was over 10 µM, the TGI (HT29 colon) was over 10 µM and the TGI (OVCAR-5 ovarian) was over 10 µM. For the same compound, the TGI (SN12C renal) was over 10 µM, the TGI (SNB-19 CNS) was over 10 µM and the TGI (T-47D breast) was over 10 µM. It also gave a TGI (UACC-257 melanoma) of over 10 µM.

In the case of O=c1[nH]c2cc([N+](=O)[O-])c(Nc3c4ccccc4nc4ccccc34)c([N+](=O)[O-])c2[nH]1, the TGI (A498 renal) is reported as 6.86 µM, the TGI (ACHN renal) is reported as 16.7 µM and the TGI (CCRF-CEM leukemia) is reported as 24.3 µM. For the same compound, the TGI (HOP-62 NSCLC) was 11.6 µM, the TGI (HT29 colon) was 9.33 µM and the TGI (OVCAR-5 ovarian) was 7.08 µM. It also gave a TGI (SN12C renal) of 9.1 µM, a TGI (SNB-19 CNS) of 26.7 µM and a TGI (T-47D breast) of 8.83 µM. For the same compound, the TGI (UACC-257 melanoma) was 11.2 µM.

In the case of CCN1CCCn2c(=O)[nH]c3cc(Br)cc1c32, the TGI (A498 renal) is reported as over 100 µM, the TGI (ACHN renal) is reported as over 100 µM and the TGI (CCRF-CEM leukemia) is reported as over 100 µM. The TGI (HOP-62 NSCLC) was over 100 µM, the TGI (HT29 colon) was over 100 µM and the TGI (OVCAR-5 ovarian) was over 100 µM. The TGI (SN12C renal) was over 100 µM, the TGI (SNB-19 CNS) was over 100 µM and the TGI (T-47D breast) was over 100 µM. For the same compound, the TGI (UACC-257 melanoma) was over 100 µM.

In the case of COc1ccc2c(c1)C(=O)C1CCC(=O)N1C2c1ccc2c(c1)OCO2 (stereo not given), the TGI (A498 renal) is reported as 38.1 µM, the TGI (ACHN renal) is reported as 38.3 µM and the TGI (CCRF-CEM leukemia) is reported as 13.3 µM. It also gave a TGI (HOP-62 NSCLC) of 42.8 µM, a TGI (HT29 colon) of 16.9 µM and a TGI (OVCAR-5 ovarian) of 28.1 µM. For the same compound, the TGI (SN12C renal) was 24.4 µM, the TGI (SNB-19 CNS) was 26.7 µM and the TGI (T-47D breast) was 48.5 µM. The TGI (UACC-257 melanoma) was 40.4 µM.
